≈ marks a conversion by molar mass, not a printed value.
Assays:
[1] = system: Human hepatocellular carcinoma cell HepG2; test: cells; settings: for IC50: HepG2, read-out: IC50 (50% inhibition concentration); for CC50: HepG2, read-out: LC50 (50% lethal concentration)
Description: (§1) In Vitro Anti-Cancer Test
(§2) The in vitro anti-cancer test was primarily used to detect the effect of a candidate drug on cancer cell proliferation. The working principle involved therein is the ability of viable cells to shift alamarBlue (AbD Serotec, UK) from its originally non-fluorescent oxidized state (non-fluorescent, blue) to a reduced form (fluorescent, red) having fluorescence via metabolic reaction. According to the fluorescent data result generated by the alamarBlue reagent thus obtained, the proliferation of the viable cells and cell activity can be quantified for detection.
(§3) In the in vitro anti-cancer tests, a candidate drug was tested at 5 different concentrations of 0.01, 0.1, 1, 10, and 100 μg/ml, and six human cancer cell lines and a normal human cell line were used (see Table 5).

[2] = system: Human histocytic lymphoma cell U937; test: cells; settings: for IC50: U-937, read-out: IC50 (50% inhibition concentration); for CC50: U-937, read-out: LC50 (50% lethal concentration)
Description: as §1, §2, §3

[3] = system: Human lung carcinoma cell A549; test: cells; settings: for IC50: A549, read-out: IC50 (50% inhibition concentration); for CC50: A549, read-out: LC50 (50% lethal concentration)
Description: as §1, §2, §3

[4] = system: Human colon adenocarcinoma cell HT-29; test: cells; settings: for IC50: HT-29, read-out: IC50 (50% inhibition concentration); for CC50: HT-29, read-out: LC50 (50% lethal concentration)
Description: as §1, §2, §3

[5] = system: Human promyelocytic leukemia cell HL-60; test: cells; settings: for IC50: HL-60, read-out: IC50 (50% inhibition concentration); for CC50: HL-60, read-out: LC50 (50% lethal concentration)
Description: as §1, §2, §3

[6] = system: Human breast adenocarcinoma cell MCF7; test: cells; settings: Homo sapiens; for IC50: MCF7, read-out: IC50 (50% inhibition concentration); for CC50: MCF7, read-out: LC50 (50% lethal concentration)
Description: as §1, §2, §3

in vitro = test: in vitro
Description: as §1, §2, §3

[7] = system: Human umbilical venal epithelial cell (HUVEC); test: cells; settings: Homo sapiens, HUVEC, read-out: IC50 (50% inhibition concentration)
Description: as §1, §2, §3

caspases = settings: cited from earlier work

What does the source list for `CC(C)=CCc1c2c(c(O)c3c1O[C@]1(C)CCC4C3C1C4(C)C)C(=O)C1=C[C@@H]3CC4C(C)(C)OC(C/C=C(/C)C(=O)O)(C3=O)[C@@]14O2` [Gh-2607-B]?
IC50 [1]: 0.31 µg/mL (≈ 0.493 µM); CC50 [1]: 4 µg/mL (≈ 6.36 µM); IC50 [2]: 0.1 µg/mL (≈ 0.159 µM); CC50 [2]: 0.25 µg/mL (≈ 0.398 µM); IC50 [3]: 0.1 µg/mL (≈ 0.159 µM); CC50 [3]: 0.33 µg/mL (≈ 0.525 µM); IC50 [4]: 0.3 µg/mL (≈ 0.477 µM); CC50 [4]: 1 µg/mL (≈ 1.59 µM); IC50 [5]: 0.13 µg/mL (≈ 0.207 µM); CC50 [5]: 3.1 µg/mL (≈ 4.93 µM); IC50 [6]: 0.1 µg/mL (≈ 0.159 µM); CC50 [6]: 0.68 µg/mL (≈ 1.08 µM); CC50 (in vitro): 1.6 µg/mL (≈ 2.54 µM); IC50 [7]: 0.07 µg/mL (≈ 0.111 µM)

For `CC(C)=CCC[C@]1(C)C[C@H](O)c2c(O)c3c(c(CC=C(C)C)c2O1)O[C@]12C(=C[C@@H]4CC1C(C)(C)O[C@]2(C/C=C(/C)C(=O)O)C4=O)C3=O` [Gh-2641-1, neogambogic acid], which IC50 [1] is on record?
The IC50 was 1.7 µg/mL (≈ 2.63 µM).

What about the CC50 [1] of the same molecule?
The CC50 was 4.6 µg/mL (≈ 7.11 µM).

And the IC50 [2]?
Its IC50 is 0.26 µg/mL (≈ 0.402 µM).

And the CC50 [2]?
The CC50 was 1 µg/mL (≈ 1.55 µM).

What about the IC50 [3] of the same molecule?
The IC50 was 0.15 µg/mL (≈ 0.232 µM).

What about the CC50 [3] of the same molecule?
Its CC50 is 0.22 µg/mL (≈ 0.34 µM).

What about the IC50 [4] of the same molecule?
The IC50 was 2.6 µg/mL (≈ 4.02 µM).

What about the CC50 [4] of the same molecule?
Its CC50 is 6.8 µg/mL (≈ 10.5 µM).

What about the IC50 [5] of the same molecule?
The IC50 was 0.18 µg/mL (≈ 0.278 µM).

What about the CC50 [5] of the same molecule?
Its CC50 is 4.5 µg/mL (≈ 6.96 µM).

What about the IC50 [6] of the same molecule?
The IC50 was 0.2 µg/mL (≈ 0.309 µM).

What about the CC50 [6] of the same molecule?
Its CC50 is 3.5 µg/mL (≈ 5.41 µM).

And the CC50 (in vitro)?
The CC50 was 4.3 µg/mL (≈ 6.65 µM).

And the IC50 [7]?
The IC50 was 0.54 µg/mL (≈ 0.835 µM).

For `CC(C)=CCC/C(C)=C/Cc1c(O)c(CC=C(C)C)c2c(c1O)C(=O)C1=C[C@@H]3CC4C(C)(C)O[C@](C/C=C(\C)C(=O)O)(C3=O)[C@@]14O2` [Gh-2642, isogambogenic acid], which IC50 [1] is on record?
Its IC50 is 11 µg/mL (≈ 17.4 µM).

And the CC50 [1]?
The CC50 was 29 µg/mL (≈ 46 µM).

What about the IC50 [2] of the same molecule?
Its IC50 is 1.3 µg/mL (≈ 2.06 µM).

What about the CC50 [2] of the same molecule?
Its CC50 is 4.1 µg/mL (≈ 6.5 µM).

What about the IC50 [3] of the same molecule?
Its IC50 is 1.5 µg/mL (≈ 2.38 µM).

What about the CC50 [3] of the same molecule?
The CC50 was 4.6 µg/mL (≈ 7.29 µM).

What about the IC50 [4] of the same molecule?
Its IC50 is 12 µg/mL (≈ 19 µM).

And the CC50 [4]?
The CC50 was 42 µg/mL (≈ 66.6 µM).

What about the IC50 [5] of the same molecule?
The IC50 was 9 µg/mL (≈ 14.3 µM).

What about the CC50 [5] of the same molecule?
Its CC50 is 32 µg/mL (≈ 50.7 µM).

What about the IC50 [6] of the same molecule?
The IC50 was 3 µg/mL (≈ 4.76 µM).

What about the CC50 [6] of the same molecule?
The CC50 was 10 µg/mL (≈ 15.9 µM).

What about the CC50 (in vitro) of the same molecule?
The CC50 was 11 µg/mL (≈ 17.4 µM).

What about the IC50 [7] of the same molecule?
The IC50 was 2.4 µg/mL (≈ 3.8 µM).

Which “activator of caspases and inducer of apoptosis” value (caspases) does the source give for `COC(=O)/C(C)=C\CC12OC(C)(C)C3CC(C=C4C(=O)c5c(O)c6c(c(CC=C(C)C)c5OC431)OC(C)(CCC(O)C(C)(C)O)C=C6)C2=O` (stereo not shown) [methyl 37,38-dihydroxy-gambogate] here?
The value was “activator of caspases and an inducer of apoptosis”.

Source: US9498463B2, “Compound obtained from gamboge resin, and medical uses of the same” (priority 2010, dated 2016)
